In patent US20260242438A1 (INSTITUTE OF MATERIA MEDICA, CHINESE ACADEMY OF MEDICAL …, priority 2022, published 2026):
Where a SMILES comes first, the peptide text is derived from it. Bridges are numbered along the chain shown (N, C = ends).

Biological target: chymotrypsin (Bos taurus, UniProt P00766)
Assay: Determination of enzyme inhibitory activity against chymotrypsin (substrate AAPFpNA, OD 405 nm)
Assay type: biochemical
Conditions: for IC50: chymotrypsin 30 nM, AAPFpNA 0.5 mM, pH 7.8, 37° C.; for remaining activity at 0.0001 µM: peptide 0.0001 μM; for remaining activity at 0.001 µM: peptide 0.001 μM; for remaining activity at 0.01 µM: peptide 0.01 μM; for remaining activity at 0.15 µM: peptide 0.15 μM; for remaining activity at 0.3 µM: peptide 0.3 μM; for remaining activity at 1 µM: peptide 1 μM; for remaining activity at 10 µM: peptide 10 μM; for remaining activity at 100 µM: peptide 100 μM; for remaining activity at 0.1 µM: peptide 0.1 μM; for remaining activity at 0.2 µM: peptide 0.2 μM; for remaining activity at 0.4 µM: peptide 0.4 μM; for remaining activity at 5 µM: peptide 5 μM; for inhibitory activity reduced (fold): relative to CH10; for remaining activity at 0.5 µM: peptide 0.5 μM; for remaining activity at 1000 µM: peptide 1000 μM; for remaining activity at 0.75 µM: peptide 0.75 μM; for remaining activity at 0.8 µM: peptide 0.8 μM
Description: The substrates N-succinyl-Ala-Ala-Pro-Phe-p-nitroaniline (AAPFpNA) is used in competitive binding reaction to determine the inhibitory activities against α -chymotrypsin. Experiments for a-chymotrypsin was measured in 20 mM CaCl2, 50 mM Tris-HCl buffer (pH 7.8). The concentration of the peptide was measured using optical density (OD) at 280 nm. The Michaelis constant (Km) of the enzyme hydrolysis substrate is calculated from the initial rate of substrate hydrolysis at 405 nm. The absorbance value of the substrate was measured at 405 nm after complete hydrolysis. All data were processed using nonlinear regression.
(1) Added a total 190 μL of reaction buffer (20 mM CaCl2, 50 mM Tris-HCl (pH 7.8)), different concentrations of anti-chymorypsin peptides (CHs) into the pre-cold 96 well plate, followed by preheating at 37° C. for 5 min and centrifugated at 500 rpm for 1 min and allowed to stand for 4 minutes. Then added 8 μL of 750 nM chymotrypsin and incubated at 37° C. for 10 min, and centrifugated at 500 rpm for 1 min and allowed to stand for 9 minutes. Finally, added 2 μL of 50 mM AAPFpNA, and mixed by centrifugation at 500 rpm for 1 min. The plate was incubated at 37° C. for 90 min, and the absorbance value at 405 nm was measured. Three repetitions were made, and only reaction buffer and substrate were added in the blank control as the minimum absorption value (Min OD 405 nm); Only reaction buffer, enzyme and substrate were added in the negative control as the maximum absorption value (Max OD 405 nm).
(2) In the 200 μL of reaction system, the final concentrations of chymotrypsin and AAPFpNA were 30 nM and 0.5 mM, respectively.
Plotted the residual activity of enzyme with […] to obtain the half inhibitory concentration (IC50) of anti-chymorypsin peptides (CHs). Then, substituted it into the formula […]/(1+S/Km) (S, IC50, and Km were substrate concentration, half inhibitory concentration, and Michaelis constant, respectively) to obtain the inhibition constant Ki of anti-chymorypsin peptides (CHs).

[1] = read-out: Residual activity of chymotrypsin

| Structure (SMILES) | Ki [nM] | IC50 [nM] | remaining activity at 0.0001 µM [1] [%] | remaining activity at 0.001 µM [1] [%] | remaining activity at 0.01 µM [1] [%] | remaining activity at 1 µM [1] [%] | remaining activity at 10 µM [1] [%] | remaining activity at 100 µM [1] [%] | remaining activity at 0.1 µM [1] [%] | remaining activity at 0.2 µM [1] [%] | remaining activity at 0.4 µM [1] [%] | inhibitory activity reduced (fold) [times] | remaining activity at 1000 µM [1] [%] | further results |
| --- | --- | --- | --- | --- | --- | --- | --- | --- | --- | --- | --- | --- | --- | --- |
| CC[C@H](C)[C@@H]1NC(=O)[C@H](CO)NC(=O)[C@H](Cc2ccccc2)NC(=O)[C@H]([C@@H](C)O)NC(=O)[C@@H](NC(=O)[C@@H](N)Cc2ccccc2)CSSC[C@@H](C(=O)N[C@@H](Cc2ccc(O)cc2)C(=O)NCC(=O)O)NC(=O)[C@H](CCC(N)=O)NC(=O)[C@@H]2CCCN2C(=O)[C@@H]2CCCN2C1=O [CH5] (H-FCTFSIPPQCYG-OH; disulfide 2-10; C-terminus assumed) | 80 | 190 | 96.7 ± 9.3 | 113 ± 2.4 | 102 ± 3.7 | 11.3 ± 1.5 | 0.3 | 0.3 ± 0.2 | – | – | – | – | – | remaining activity at 0.15 µM [1]: 58.3 ± 2.3%; remaining activity at 0.3 µM [1]: 41.9 ± 5.7%; remaining activity at 0.6 µM (peptide 0.6 μM, read-out: Residual activity of chymotrypsin): 19 ± 0.8% |
| CC[C@H](C)[C@@H]1NC(=O)[C@H](CO)NC(=O)[C@H](Cc2ccc(O)cc2)NC(=O)[C@H]([C@@H](C)O)NC(=O)[C@@H](NC(=O)[C@@H](N)Cc2ccccc2)CSSC[C@@H](C(=O)N[C@@H](Cc2ccc(O)cc2)C(=O)NCC(=O)O)NC(=O)[C@H](CCC(N)=O)NC(=O)[C@@H]2CCCN2C(=O)[C@@H]2CCCN2C1=O [CH10] (H-FCTYSIPPQCYG-OH; disulfide 2-10; C-terminus assumed) | 30 | 60 | 101 | – | 95.1 ± 1.2 | 3.8 ± 0.4 | 0.1 ± 0.1 | -0.1 | 35.4 ± 7.2 | 24.9 ± 3.5 | 18 ± 4.9 | – | – | – |
| CC[C@H](C)[C@@H]1NC(=O)[C@H](CO)NC(=O)[C@H](Cc2ccccc2)NC(=O)[C@H]([C@@H](C)O)NC(=O)[C@@H](NC(=O)[C@@H](N)CO)CSSC[C@@H](C(=O)N[C@@H](Cc2ccc(O)cc2)C(=O)NCC(=O)O)NC(=O)[C@H](CCC(N)=O)NC(=O)[C@@H]2CCCN2C(=O)[C@@H]2CCCN2C1=O [CH11] (H-SCTFSIPPQCYG-OH; disulfide 2-10; C-terminus assumed) | 150 | 350 | – | 98.5 ± 3.1 | 104 ± 1.8 | 17.6 ± 0.8 | 6.5 ± 0.3 | 1.1 ± 0.2 | 95.3 ± 3 | – | – | ~7 | – | remaining activity at 0.15 µM [1]: 82.3 ± 3.3%; remaining activity at 5 µM [1]: 12.5 ± 0.7%; remaining activity at 300 µM (peptide 300 μM, read-out: Residual activity of chymotrypsin): 0.2 ± 0.6% |
| CC[C@H](C)[C@@H]1NC(=O)[C@H](CO)NC(=O)[C@H](Cc2ccc(O)cc2)NC(=O)[C@H]([C@@H](C)O)NC(=O)[C@@H](NC(=O)[C@H](C)N)CSSC[C@@H](C(=O)N[C@@H](Cc2ccccc2)C(=O)O)NC(=O)[C@H](CCCCN)NC(=O)[C@H](C)NC(=O)[C@@H]2CCCN2C1=O [CH18] (H-ACTYSIPAKCF-OH; disulfide 2-10; C-terminus assumed) | 200 | 470 | – | 103.6 ± 0.2 | 102 ± 3.7 | – | 3.4 ± 0.5 | 0.3 ± 0.1 | 102 ± 2.4 | 90.3 ± 4.1 | – | – | 0.1 ± 0.1 | remaining activity at 0.5 µM [1]: 49.4 ± 3.7%; remaining activity at 2.5 µM (peptide 2.5 μM, read-out: Residual activity of chymotrypsin): 3.7 ± 0.5% |
| CC[C@H](C)[C@@H]1NC(=O)[C@@H]2CCCN2C(=O)[C@@H]2CCCN2C(=O)[C@H]([C@@H](C)CC)NC(=O)[C@H](CO)NC(=O)[C@H](Cc2ccccc2)NC(=O)[C@H]([C@@H](C)O)NC(=O)[C@@H](NC(=O)[C@@H](NC(=O)CN)[C@@H](C)O)CSSC[C@@H](C(=O)N[C@@H](CC(N)=O)C(=O)N2CCC[C@H]2C(=O)N[C@@H](CC(N)=O)C(=O)O)NC1=O [CH25] (H-GTCTFSIPPICNPN-OH; disulfide 3-11; C-terminus assumed) | – | – | 99.7 ± 1 | 100 ± 1.9 | 96.9 ± 1.4 | 15.4 ± 1.2 | 1.5 ± 0.3 | 0.2 ± 0.2 | – | 63.1 ± 4.1 | – | – | 0.2 ± 0.1 | remaining activity at 0.3 µM [1]: 44.6 ± 4.9% |
| CC[C@H](C)[C@@H]1NC(=O)[C@@H]2CCCN2C(=O)[C@@H]2CCCN2C(=O)[C@H]([C@@H](C)CC)NC(=O)[C@H](CO)NC(=O)[C@H](Cc2ccccc2)NC(=O)[C@H]([C@@H](C)O)NC(=O)[C@@H](NC(=O)[C@@H](NC(=O)CN)[C@@H](C)O)CSSC[C@@H](C(=O)N[C@@H](CC(N)=O)C(=O)O)NC1=O [CH26] (H-GTCTFSIPPICN-OH; disulfide 3-11; C-terminus assumed) | 230 | 540 | – | 101 ± 1.6 | – | 27.8 ± 2.5 | 2.2 ± 0.2 | 0.3 ± 0.1 | 95.1 ± 2.1 | 83.1 ± 1.1 | 63.2 ± 4.5 | – | 0.1 | remaining activity at 5 µM [1]: 7 ± 0.5% |
| CC[C@H](C)[C@@H]1NC(=O)[C@H](CO)NC(=O)[C@H](Cc2ccc(O)cc2)NC(=O)[C@H]([C@@H](C)O)NC(=O)[C@@H](NC(=O)[C@@H](N)Cc2ccccc2)CSSC[C@@H](C(=O)N[C@@H](Cc2ccc(O)cc2)C(=O)O)NC(=O)[C@H](CCC(N)=O)NC(=O)[C@@H]2CCCN2C(=O)[C@@H]2CCCN2C1=O [CH33] (H-FCTYSIPPQCY-OH; disulfide 2-10; C-terminus assumed) | 190 | 440 | – | 99.5 ± 1.4 | 92.1 ± 2.1 | 19.8 ± 1 | 2 ± 0.2 | 0.1 | 93.6 ± 1.6 | – | – | – | 0.1 | remaining activity at 0.5 µM [1]: 42.7 ± 3.1%; remaining activity at 0.75 µM [1]: 24.6 ± 2% |
| CC[C@H](C)[C@@H]1NC(=O)[C@H](CO)NC(=O)[C@H](Cc2ccc(O)cc2)NC(=O)[C@H]([C@@H](C)O)NC(=O)[C@@H](NC(=O)[C@@H](N)Cc2ccccc2)CSSC[C@@H](C(=O)N[C@@H](Cc2ccc(O)cc2)C(=O)N[C@@H](C)C(=O)O)NC(=O)[C@H](CCC(N)=O)NC(=O)[C@@H]2CCCN2C(=O)[C@@H]2CCCN2C1=O [CH34] (H-FCTYSIPPQCYA-OH; disulfide 2-10; C-terminus assumed) | 160 | 370 | – | 102.3 ± 0.8 | 104.1 ± 0.5 | 17.8 ± 0.9 | 1.2 ± 0.1 | 0.1 | 104.8 ± 0.6 | 78.5 ± 2.5 | 45.5 ± 1.5 | – | – | remaining activity at 0.75 µM [1]: 24.5 ± 0.9% |
| CC[C@H](C)[C@@H]1NC(=O)[C@H](CO)NC(=O)[C@H](Cc2ccc(O)cc2)NC(=O)[C@H]([C@@H](C)O)NC(=O)[C@@H](NC(=O)[C@@H](N)Cc2ccccc2)CSSC[C@@H](C(=O)N[C@@H](CCCNC(=N)N)C(=O)O)NC(=O)[C@H](CCC(N)=O)NC(=O)[C@@H]2CCCN2C(=O)[C@@H]2CCCN2C1=O [CH35] (H-FCTYSIPPQCR-OH; disulfide 2-10; C-terminus assumed) | 190 | 450 | – | 100.8 ± 0.9 | 101 ± 1.2 | 16.6 ± 4.7 | 2.6 ± 0.2 | 0 | 101 ± 2.6 | 78.9 ± 2.9 | 58.8 ± 3.4 | ~7 | – | remaining activity at 0.8 µM [1]: 27.3 ± 2.9% |
| CC[C@H](C)[C@@H]1NC(=O)[C@H](CO)NC(=O)[C@H](Cc2ccc(O)cc2)NC(=O)[C@H]([C@@H](C)O)NC(=O)[C@@H](NC(=O)[C@@H]2CCCN2)CSSC[C@@H](C(=O)N[C@@H](Cc2ccc(O)cc2)C(=O)O)NC(=O)[C@H](CCC(N)=O)NC(=O)[C@@H]2CCCN2C(=O)[C@@H]2CCCN2C1=O [CH51] (H-PCTYSIPPQCY-OH; disulfide 2-10; C-terminus assumed) | 200 | 460 | – | 100 ± 1.2 | 100 ± 0.2 | 24.3 ± 2.4 | 3 ± 0.2 | 0.3 | 95.4 ± 2.2 | 80.3 ± 3.9 | 54.2 ± 1.8 | ~7 | – | remaining activity at 0.8 µM [1]: 31.2 ± 1.6% |
